Patent publication US20250302815A1, “PROTEIN TYROSINE PHOSPHATASE TARGETING LIGANDS” (CALICO LIFE SCIENCES LLC, priority 2021, published 2025)

Tests used:
[1] = molecular target: T1, PTPN2 (HiBIT-PTPN2 in 293T.109 cells) (Homo sapiens, UniProt P17706); assay: HiBiT Degradation 293T.109 PTPN2 (Nano-Glo HiBiT Lytic Assay); type: cell-based; details: 24.0 hours
T1 construct: expressed in transfected cells; host or cells: 293T.109 (293T WT from ATCC)
T1 sequence (P17706 1-415): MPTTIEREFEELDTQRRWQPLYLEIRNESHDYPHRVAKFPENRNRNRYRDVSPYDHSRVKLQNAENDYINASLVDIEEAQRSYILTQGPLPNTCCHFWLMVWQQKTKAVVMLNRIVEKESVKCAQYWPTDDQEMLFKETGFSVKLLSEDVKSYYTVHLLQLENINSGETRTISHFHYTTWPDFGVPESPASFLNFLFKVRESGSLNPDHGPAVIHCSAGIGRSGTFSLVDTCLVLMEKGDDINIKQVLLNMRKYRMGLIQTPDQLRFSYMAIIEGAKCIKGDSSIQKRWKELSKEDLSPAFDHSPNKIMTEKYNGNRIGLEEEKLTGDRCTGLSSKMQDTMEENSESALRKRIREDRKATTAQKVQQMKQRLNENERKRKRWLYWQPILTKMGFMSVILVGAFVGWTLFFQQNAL
Summary of the method: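 293T.109 cells with ectopic N-terminal HiBiT-tagged PTPN2 (5000/well) exposed to compounds for 24 h at 37 °C, 5% CO2; 11-point half-log titration from 10 μM top, duplicates. Remaining HiBiT-PTPN2 read as luminescence with Nano-Glo HiBiT lytic reagent, normalised to untreated cells (0%) and reagent-free wells.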

[2] = molecular target: T2, PTPN2 (B16F10.4 cells) (Mus musculus, UniProt Q06180); assay: HiBiT Degradation B16F10.4 PTPN2; type: cell-based; details: 24.0 hours
T2 construct: HiBiT; host or cells: B16F10.4
T2 sequence (Q06180 1-406): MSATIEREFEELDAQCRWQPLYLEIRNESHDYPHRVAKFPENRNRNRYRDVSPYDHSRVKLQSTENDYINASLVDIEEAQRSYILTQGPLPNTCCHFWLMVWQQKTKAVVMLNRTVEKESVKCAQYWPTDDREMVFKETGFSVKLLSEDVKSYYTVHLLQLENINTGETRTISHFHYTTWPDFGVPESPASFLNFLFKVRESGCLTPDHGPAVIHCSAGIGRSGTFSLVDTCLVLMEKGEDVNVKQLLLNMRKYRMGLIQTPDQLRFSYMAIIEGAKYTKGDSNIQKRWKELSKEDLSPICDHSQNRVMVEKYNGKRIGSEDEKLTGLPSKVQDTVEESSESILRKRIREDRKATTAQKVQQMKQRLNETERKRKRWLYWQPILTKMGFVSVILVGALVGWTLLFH

| DC50 [1] [nM] | DC50 [2] [nM] | SMILES |
| --- | --- | --- |
| < 50 | 200 to 1000 | CC1(C)CC(Nc2cccc(-c3sc(C(=O)O)c(OCC(=O)O)c3Cl)c2F)CCN1S(=O)(=O)Cc1ccc(F)c(NC(=O)C2CN(C(=O)CNc3cccc4c3CN(C3CCC(=O)NC3=O)C4=O)C2)c1 (centres unmarked) [Example 146, 3-(carboxymethoxy)-4-chloro-5-[3-[[1-[[3-[[1-[2-[[2-(2,6-dioxo-3-piperidyl)-1-oxo-isoindolin-4-yl]amino]acetyl]azetidine-3-carbonyl]amino]-4-fluoro-phenyl]methylsulfonyl]-2,2-dimethyl-4-piperidyl]amino]-2-fluoro-phenyl]thiophene-2-carboxylic acid] |
| 50 to 200 | 50 to 200 | CC1(C)C[C@@H](Nc2cccc(-c3sc(C(=O)O)c(OCC(=O)O)c3Cl)c2)CCN1S(=O)(=O)Cc1cccc(NC(=O)CCC(=O)NCc2ccc3c4c(cccc24)C(=O)N3C2CCC(=O)NC2=O)c1 (stereo partly drawn) [Example 220, 3-(carboxymethoxy)-4-chloro-5-(3-(((4S)-1-((3-(4-(((1-(2,6-dioxopiperidin-3-yl)-2-oxo-1,2-dihydrobenzo[cd]indol-6-yl)methyl)amino)-4-oxobutanamido)benzyl)sulfonyl)-2,2-dimethylpiperidin-4-yl)amino)phenyl)thiophene-2-carboxylic acid] |
| 50 to 200 | < 50 | O=C(O)COc1c(C(=O)O)sc(-c2cccc(NC3CCN(S(=O)(=O)Cc4cccc(NC(=O)N5CCC(c6ccc7c8c(cccc68)C(=O)N7C6CCC(=O)NC6=O)CC5)c4)CC3)c2)c1Cl (centres unmarked) [Example 173, 3-(carboxymethoxy)-4-chloro-5-[3-[[1-[[3-[[4-[1-(2,6-dioxo-3-piperidyl)-2-oxo-benzo[cd]indol-6-yl]piperidine-1-carbonyl]amino]phenyl]methylsulfonyl]-4-piperidyl]amino]phenyl]thiophene-2-carboxylic acid] |
| 50 to 200 | 50 to 200 | CC1(C)C[C@@H](Nc2cccc(-c3sc(C(=O)O)c(OCC(=O)O)c3Cl)c2)CCN1S(=O)(=O)Cc1cccc(NC(=O)NCCCc2ccc3c4c(cccc24)N(C2CCC(=O)NC2=O)C3=O)c1 (stereo partly drawn) [Example 177, 3-(carboxymethoxy)-4-chloro-5-[3-[[(4S)-1-[3-[3-[[1-(2,6-dioxo-3-piperidyl)-2-oxo-benzo[cd]indol-5-yl]propylcarbamoylamino]phenyl]methylsulfonyl]-2,2-dimethyl-4-piperidyl]amino]phenyl]thiophene-2-carboxylic acid] |
| < 50 | < 50 | CC1(C)C[C@@H](Nc2cccc(-c3sc(C(=O)O)c(OCC(=O)O)c3Cl)c2)CCN1S(=O)(=O)Cc1cccc(NC(=O)NCCCc2ccc3c4c(cccc24)C(=O)N3C2CCC(=O)NC2=O)c1 (stereo partly drawn) [Example 156, 3-(carboxymethoxy)-4-chloro-5-(3-(((4S)-1-((3-(3-(3-(1-(2,6-dioxopiperidin-3-yl)-2-oxo-1,2-dihydrobenzo[cd]indol-6-yl)propyl)ureido)benzyl)sulfonyl)-2,2-dimethylpiperidin-4-yl)amino)phenyl)thiophene-2-carboxylic acid] |
| < 50 | < 50 | Cn1c(=O)n(C2CCC(=O)NC2=O)c2ccc([C@@H]3CCN(C(=O)Nc4cccc(CS(=O)(=O)N5CC[C@H](Nc6cccc(-c7sc(C(=O)O)c(OCC(=O)O)c7Cl)c6)CC5(C)C)c4)C[C@@H]3F)cc21 (stereo in doubt) [Example 172] |
| < 50 | 200 to 1000 | CC1(C)C[C@@H](Nc2cccc(-c3sc(C(=O)O)c(OCC(=O)O)c3Cl)c2F)CCN1S(=O)(=O)Cc1ccc(F)c(NC(=O)C2CN(C(=O)CNc3cccc4c3CN([C@H]3CCC(=O)NC3=O)C4=O)C2)c1 (single isomer, unassigned) [Example 148b] |

More lines, now with the values behind:

| SMILES | DC50 [1] [nM] | DC50 [2] [nM] |
| --- | --- | --- |
| O=C(O)COc1c(C(=O)O)sc(-c2cccc(NC3CCN(S(=O)(=O)Cc4cccc(NC(=O)CNc5ccc6c(c5)C(=O)N(C5CCC(=O)NC5=O)C6=O)c4)CC3)c2)c1Cl (centres unmarked) [Example 23, 3-(carboxymethoxy)-4-chloro-5-[3-[[1-[[3-[[2-[[2-(2,6-dioxo-3-piperidyl)-1,3-dioxo-isoindolin-5-yl]amino]acetyl]amino]phenyl]methylsulfonyl]-4-piperidyl]amino]phenyl]thiophene-2-carboxylic acid] | 200 to 1000 | 200 to 1000 |
| CC1(C)C[C@@H](Nc2cccc(-c3sc(C(=O)O)c(OCC(=O)O)c3Cl)c2)CCN1S(=O)(=O)Cc1ccc(F)c(NC(=O)C2CN(C(=O)CNc3cccc4c3CN(C3CCC(=O)NC3=O)C4=O)C2)c1 (some centres unmarked) [Example 109] | < 50 | 200 to 1000 |
| CC1(C)C[C@@H](Nc2cccc(-c3sc(C(=O)O)c(OCC(=O)O)c3Cl)c2)CCN1S(=O)(=O)Cc1cccc(NC(=O)N2CCC(Oc3cccc4c3CN(C3CCC(=O)NC3=O)C4=O)CC2)c1 (some centres unmarked) [Example 72] | 50 to 200 | 50 to 200 |
| Cn1c(=O)n(C2CCC(=O)NC2=O)c2ccc(N3CC(OC(=O)Nc4cccc(CS(=O)(=O)N5CC[C@H](Nc6cccc(-c7sc(C(=O)O)c(OCC(=O)O)c7Cl)c6)CC5(C)C)c4)C3)cc21 (some centres unmarked) [Example 136] | 200 to 1000 | ≥ 1000 |
| CC1(C)C[C@@H](Nc2cccc(-c3sc(C(=O)O)c(OCC(=O)O)c3Cl)c2)CCN1S(=O)(=O)Cc1cccc(NC(=O)N2CCC(c3ccc4c(c3)CCN4C3CCC(=O)NC3=O)CC2)c1 (stereo partly drawn) [Example 94, 3-(carboxymethoxy)-4-chloro-5-[3-[[(4S)-1-[[3-[[4-[1-(2,6-dioxo-3-piperidyl)indolin-5-yl]piperidine-1-carbonyl]amino]phenyl]methylsulfonyl]-2,2-dimethyl-4-piperidyl]amino]phenyl]thiophene-2-carboxylic acid] | 200 to 1000 | 200 to 1000 |
| CC1(C)C[C@@H](Nc2cccc(-c3sc(C(=O)O)c(OCC(=O)O)c3Cl)c2)CCN1S(=O)(=O)Cc1cccc(NC(=O)CCOCCOCCOCCCc2cccc3c2C(=O)N(C2CCC(=O)NC2=O)C3=O)c1 (stereo partly drawn) [Example 35, 3-(carboxymethoxy)-4-chloro-5-[3-[[(4S)-1-[[3-[3-[2-[2-[3-[2-(2,6-dioxo-3-piperidyl)-1,3-dioxo-isoindolin-4-yl]propoxy]ethoxy]ethoxy]propanoylamino]phenyl]methylsulfonyl]-2,2-dimethyl-4-piperidyl]amino]phenyl]thiophene-2-carboxylic acid] | 200 to 1000 | 200 to 1000 |
| Cn1c(=O)n(C2CCC(=O)NC2=O)c2ccc(C3CN(C(=O)Nc4cccc(CS(=O)(=O)N5CC[C@H](Nc6cccc(-c7sc(C(=O)O)c(OCC(=O)O)c7Cl)c6)CC5(C)C)c4)C3)cc21 (stereo partly drawn) [Example 106, 3-(carboxymethoxy)-4-chloro-5-[3-[[(4S)-1-[[3-[[3-[1-(2,6-dioxo-3-piperidyl)-3-methyl-2-oxo-benzimidazol-5-yl]azetidine-1-carbonyl]amino]phenyl]methylsulfonyl]-2,2-dimethyl-4-piperidyl]amino]phenyl]thiophene-2-carboxylic acid] | 50 to 200 | 50 to 200 |
| Cn1c(=O)n(C2CCC(=O)NC2=O)c2ccc(C#CCNC(=O)Nc3cccc(CS(=O)(=O)N4CC[C@H](Nc5cccc(-c6sc(C(=O)O)c(OCC(=O)O)c6Cl)c5)CC4(C)C)c3)cc21 (stereo partly drawn) [Example 91, 3-(carboxymethoxy)-4-chloro-5-(3-(((4S)-1-((3-(3-(3-(1-(2,6-dioxopiperidin-3-yl)-3-methyl-2-oxo-2,3-dihydro-1H-benzo[d]imidazol-5-yl)prop-2-yn-1-yl)ureido)benzyl)sulfonyl)-2,2-dimethylpiperidin-4-yl)amino)phenyl)thiophene-2-carboxylic acid] | 50 to 200 | 50 to 200 |
| Cn1c(=O)n(C2CCC(=O)NC2=O)c2ccc(N3CCC4(CC3)CN(C(=O)Nc3cccc(CS(=O)(=O)N5CCC(Nc6cccc(-c7sc(C(=O)O)c(OCC(=O)O)c7Cl)c6)CC5)c3)C4)cc21 (centres unmarked) [Example 102, 3-(carboxymethoxy)-4-chloro-5-[3-[[1-[[3-[[7-[1-(2,6-dioxo-3-piperidyl)-3-methyl-2-oxo-benzimidazol-5-yl]-2,7-diazaspiro[3.5]nonane-2-carbonyl]amino]phenyl]methylsulfonyl]-4-piperidyl]amino]phenyl]thiophene-2-carboxylic acid] | 50 to 200 | 50 to 200 |
